Experimental data taken from patent US8735388B2, “Heterocyclic compounds with affinity to muscarinic receptors” (Abbvie B. V. A., priority 2007, dated 2014).
Read-outs that look alike come from different tables or passages of the source.

Assays:
[1] = target: T1, Muscarine M4 (GPCR-A-MA-ACH M4) (Homo sapiens, UniProt P08173); assay: Muscarine M4 receptor binding, 3H-4DAMP; settings: human M4, CHO cells, ligand 0.2 nM, 60 min/22° C., read-out: RB Musc. M4 3H-DAMP pKi (converted)
T1 construct: expressed in transfected cells; host or cells: CHO cells
T1 sequence (P08173 1-479): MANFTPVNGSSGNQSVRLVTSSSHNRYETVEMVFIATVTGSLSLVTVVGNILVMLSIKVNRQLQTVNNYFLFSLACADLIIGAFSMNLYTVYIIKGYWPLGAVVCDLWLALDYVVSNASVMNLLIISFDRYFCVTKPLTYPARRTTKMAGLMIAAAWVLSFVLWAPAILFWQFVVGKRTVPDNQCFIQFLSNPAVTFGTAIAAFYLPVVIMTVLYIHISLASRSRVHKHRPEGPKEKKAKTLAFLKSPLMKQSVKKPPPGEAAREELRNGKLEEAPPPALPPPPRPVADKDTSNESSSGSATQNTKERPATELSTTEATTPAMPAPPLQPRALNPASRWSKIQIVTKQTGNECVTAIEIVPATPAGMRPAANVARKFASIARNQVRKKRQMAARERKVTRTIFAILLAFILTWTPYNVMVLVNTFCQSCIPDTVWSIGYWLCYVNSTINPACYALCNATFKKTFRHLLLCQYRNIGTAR
How it was run: (§1)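 Human M1 ([3H]-pirenzepine), M3, and M4 ([3H]-4DAMP or [3H]-oxotremorine) receptor preparations incubated with radioligand and compound, first at 10 μM, then at 10-fold lower concentrations if inhibition exceeded 40%. Bound ligand separated by glass-fibre filtration and counted by scintillation. IC50 from Hill fit, converted to Ki via Cheng-Prusoff, reported as pKi.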

[2] = target: T1, Muscarine M4 (GPCR-A-MA-ACH M4); assay: Muscarine M4 receptor binding, 3H-Oxotremorine
How it was run: as §1

[3] = target: T1, Muscarine M4 (GPCR-A-MA-ACH M4); assay: Muscarine M4 cell-based functional assay (CHO cells, Ca2+ - Aequorin luminescence)
How it was run: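 CHO cells expressing human M4 were exposed to compound, with Ca2+ response read by aequorin luminescence. Compounds were first tested at 1 μM, then at 10-fold lower concentrations if active; stimulation or inhibition was relative to the reference agonist. EC50/IC50 came from Hill-equation fits.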

[4] = target: T2, Muscarine M1 (GPCR-A-MA-ACH M1) (Homo sapiens, UniProt P11229); assay: Muscarine M1 receptor binding, 3H-Pirenzepine; settings: human M1, CHO cells, ligand 2 nM, 60 min/22° C., read-out: RB Musc. M1 3H-Pirenzepine pKi (converted)
T2 construct: expressed in transfected cells; host or cells: CHO cells
T2 sequence (P11229 1-460): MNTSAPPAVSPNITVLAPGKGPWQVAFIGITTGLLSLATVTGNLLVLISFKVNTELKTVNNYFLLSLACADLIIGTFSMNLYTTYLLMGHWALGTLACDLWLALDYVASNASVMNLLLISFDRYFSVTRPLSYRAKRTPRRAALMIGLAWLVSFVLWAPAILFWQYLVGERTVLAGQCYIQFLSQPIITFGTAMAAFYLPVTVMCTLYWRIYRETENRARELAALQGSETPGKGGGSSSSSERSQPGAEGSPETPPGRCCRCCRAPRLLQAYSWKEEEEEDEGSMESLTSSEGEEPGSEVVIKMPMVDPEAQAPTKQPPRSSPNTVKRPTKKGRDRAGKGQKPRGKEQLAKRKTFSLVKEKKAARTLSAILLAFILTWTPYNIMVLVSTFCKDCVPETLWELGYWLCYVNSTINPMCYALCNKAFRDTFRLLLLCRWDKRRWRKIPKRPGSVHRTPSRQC
How it was run: as §1

[5] = target: T2, Muscarine M1 (GPCR-A-MA-ACH M1); assay: Muscarine M1 cell-based functional assay (CHO cells, Ca2+ - FLIPR Fluorimetry); settings: read-out: Cell funct. Musc. M1 Agonism pEC50 (converted)
[6] = target: T3, Muscarine M2 (GPCR-A-MA-ACH M2) (Homo sapiens, UniProt P08172); assay: Muscarine M2 receptor binding
T3 construct: expressed in transfected cells; host or cells: CHO cells
T3 sequence (P08172 1-466): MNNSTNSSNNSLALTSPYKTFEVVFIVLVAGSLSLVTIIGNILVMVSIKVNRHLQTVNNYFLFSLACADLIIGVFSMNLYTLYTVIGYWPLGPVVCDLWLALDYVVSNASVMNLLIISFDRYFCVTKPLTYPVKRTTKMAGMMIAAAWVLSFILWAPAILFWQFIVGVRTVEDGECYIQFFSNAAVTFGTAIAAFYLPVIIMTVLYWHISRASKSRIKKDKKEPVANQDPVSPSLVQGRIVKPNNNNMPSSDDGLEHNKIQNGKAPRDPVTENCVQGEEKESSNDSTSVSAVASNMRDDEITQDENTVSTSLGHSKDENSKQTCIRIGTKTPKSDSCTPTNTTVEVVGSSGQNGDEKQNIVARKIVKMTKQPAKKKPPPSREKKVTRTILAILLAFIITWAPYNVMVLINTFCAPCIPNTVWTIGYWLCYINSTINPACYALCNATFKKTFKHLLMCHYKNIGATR

[7] = target: T4, Muscarine M2 (GPCR-A-MA-ACH M2) (Cavia porcellus, UniProt H0VRN8); assay: Muscarine M2 functional assay, isolated organ (left atrium, electrically paced), agonist and antagonist mode; parameters: species or system Guinea Pig; settings: for EC50: read-out: Cell funct. Musc. M2 Agonism pEC50 (converted)
T4 construct: from tissue; host or cells: guinea pig left atrium (electrically paced)
T4 sequence (H0VRN8 1-466): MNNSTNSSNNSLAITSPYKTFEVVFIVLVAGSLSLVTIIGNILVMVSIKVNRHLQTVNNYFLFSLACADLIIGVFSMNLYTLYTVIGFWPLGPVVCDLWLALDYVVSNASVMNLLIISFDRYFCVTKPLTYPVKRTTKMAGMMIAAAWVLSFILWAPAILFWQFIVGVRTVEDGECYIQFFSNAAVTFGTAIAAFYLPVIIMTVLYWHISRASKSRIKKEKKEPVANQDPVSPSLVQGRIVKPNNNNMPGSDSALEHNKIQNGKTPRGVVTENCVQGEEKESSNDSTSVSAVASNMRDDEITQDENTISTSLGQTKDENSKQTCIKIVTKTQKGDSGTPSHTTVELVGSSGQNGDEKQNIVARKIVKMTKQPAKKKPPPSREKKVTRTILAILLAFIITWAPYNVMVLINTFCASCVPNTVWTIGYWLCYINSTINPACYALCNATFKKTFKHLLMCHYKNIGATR

[8] = target: T5, Muscarine M3 (GPCR-A-MA-ACH M3) (Homo sapiens, UniProt P20309); assay: Muscarine M3 receptor binding
T5 construct: expressed in transfected cells; host or cells: CHO cells
T5 sequence (P20309 whole entry): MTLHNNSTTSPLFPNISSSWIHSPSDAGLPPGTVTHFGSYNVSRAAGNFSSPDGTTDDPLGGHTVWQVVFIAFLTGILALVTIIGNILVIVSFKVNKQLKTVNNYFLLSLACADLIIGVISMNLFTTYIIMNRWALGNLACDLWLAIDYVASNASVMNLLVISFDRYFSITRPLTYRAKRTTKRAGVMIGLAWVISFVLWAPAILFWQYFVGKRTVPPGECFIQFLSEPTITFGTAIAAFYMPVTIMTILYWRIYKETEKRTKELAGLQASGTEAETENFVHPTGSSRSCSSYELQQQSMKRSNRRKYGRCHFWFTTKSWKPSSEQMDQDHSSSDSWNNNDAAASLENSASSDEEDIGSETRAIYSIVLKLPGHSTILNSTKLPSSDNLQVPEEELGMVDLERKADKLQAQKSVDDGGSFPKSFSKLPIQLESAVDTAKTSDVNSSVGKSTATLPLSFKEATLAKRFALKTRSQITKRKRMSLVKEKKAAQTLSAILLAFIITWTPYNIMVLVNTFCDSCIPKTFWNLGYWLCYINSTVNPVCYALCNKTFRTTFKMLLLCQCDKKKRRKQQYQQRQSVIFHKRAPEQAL

[9] = target: T6, Muscarine M3 (GPCR-A-MA-ACH M3) (Cavia porcellus, UniProt H0W1Z3); assay: Muscarine M3 functional assay, isolated organ (ileum), agonist and antagonist mode; parameters: species or system Guinea Pig; settings: for EC50: read-out: Cell funct. Musc. M3 Agonism pEC50 (converted)
T6 construct: from tissue; host or cells: guinea pig ileum
T6 sequence (H0W1Z3 1-590): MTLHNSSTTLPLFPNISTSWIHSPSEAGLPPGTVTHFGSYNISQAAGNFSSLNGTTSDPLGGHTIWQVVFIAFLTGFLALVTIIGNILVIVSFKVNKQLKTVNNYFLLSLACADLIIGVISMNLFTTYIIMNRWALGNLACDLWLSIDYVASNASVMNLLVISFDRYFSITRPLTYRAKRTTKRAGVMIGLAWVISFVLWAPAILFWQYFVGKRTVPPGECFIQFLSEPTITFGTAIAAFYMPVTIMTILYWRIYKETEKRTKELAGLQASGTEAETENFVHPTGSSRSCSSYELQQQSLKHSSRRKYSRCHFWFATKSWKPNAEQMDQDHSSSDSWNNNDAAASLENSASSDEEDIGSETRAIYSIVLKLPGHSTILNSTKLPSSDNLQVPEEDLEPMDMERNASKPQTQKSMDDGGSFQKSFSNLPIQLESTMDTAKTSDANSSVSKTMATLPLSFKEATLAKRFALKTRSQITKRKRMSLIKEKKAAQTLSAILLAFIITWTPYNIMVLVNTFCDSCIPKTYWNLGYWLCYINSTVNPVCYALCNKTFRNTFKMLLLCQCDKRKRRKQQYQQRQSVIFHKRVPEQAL

[10] = Stability in human liver homogenate (metabolic stability in vitro); type: in vitro ADME; settings: read-out: t ½
Text: DÖRJE, F., WESS, J., LAMBRECHT, G., TACKE, R., […], E. and BRANN, M. R. (1991) Antagonist binding profiles of five cloned human muscarinic receptor subtypes. J. Pharmacol. Exp. Ther., 256: 727-733. • […], M. H. (1990) Rat hippocampal muscarinic autoreceptors are similar to the M2 (cardiac) subtype: comparison with hippocampal M1, atrial M2 and ileal M3 receptors. Brit. J. Pharmacol., 99: 753-761. • PERALTA, E. G., ASHKENAZI, A., WINSLOW, J. W., SMITH, D. H., […], J. and CAPON, D. J. (1987) Distinct primary structures, ligand-binding properties and tissue-specific expression of four human muscarinic acetylcholine receptors. EMBO. J., 6: 3923-3929. Determination of Metabolic Stability (In Vitro)
Method used according to procedures described by DI, L. et al., Journal of Biomolecular Screening, Vol. 8, No. 4, 453-462 (2003).

[11] = human M4, CHO cells, receptor binding, ligand 6 nM, 30 min/25° C., read-out: RB Musc. M4 3H-Oxotremorine pKi (converted)
[12] = human M4, CHO cells, agonist mode, reference agonist oxotremorine, read-out: Cell funct. Musc. M4 Agonism pEC50 (converted)
[13] = human M1, CHO cells, agonist mode, reference agonist acetylcholine

Compound	Ki [1] [nM]	Ki [2, 11] [nM]	EC50 [3, 12] [nM]	Ki [4] [nM]	EC50 [5, 13] [nM]	melting point [°C]	Ki [2] [nM]	EC50 [3] [nM]	EC50 [5] [nM]	Ki [6] [nM]	Kb [7] [nM]	EC50 [7] [nM]	Ki [8] [nM]	Kb [9] [nM]	EC50 [9] [nM]	half-life [10] [min]	Ki ([6]; human M2, CHO cells, receptor binding) [nM]	Kb ([7]; read-out: Cell funct. Musc. M2 Antagonism pA2 (converted)) [nM]	Ki ([8]; human M3, CHO cells, receptor binding) [nM]
CCCCSc1c[nH]nc1C1=CCCN(C)C1 [Compound 22F, 3-(4-Butylsulfanyl-1H-pyrazol-3-yl)-1,2,5,6-tetrahydro-1-methylpyridine]	39.8	63.1	126	316	200	120 to 121													
CSc1c[nH]nc1C1=CCCN(C)C1 [Compound 22A, 3-(4-Methylsulfanyl-1H-pyrazol-3-yl)-1,2,5,6-tetrahydro-1-methylpyridine]	398	251	> 10000	1580		131.5													
CCCCCSc1c[nH]nc1C1CN2CCC1CC2 (stereo not drawn) [Compound 49B, 3-(4-Pentylsulfanyl-1H-pyrazol-3-yl)-1-azabicyclo[2.2.2]octane]	25.1			158		142 to 145	7.94	6.31	10	631	> 1000	> 1000	63.1	> 1000	> 1000				
CN1CCC=C(c2n[nH]cc2SCCCC(F)(F)F)C1 [Compound 22B, 3-[4-(4,4,4-trifluoro-butylsulfanyl)-1H-pyrazol-3-yl]-1,2,5,6-tetrahydro-1-methylpyridine]	126	398	501	501	79.4											52			
CC(C)CCSc1c[nH]nc1C1CN2CCC1CC2 (stereo not drawn) [Compound 49H, 3-[4-(3-Methyl-butylsulfanyl)-1H-pyrazol-3-yl]-1-azabicyclo[2.2.2]octane]	39.8			158		157 to 159	31.6	> 10000	50.1										
CCCSc1c[nH]nc1C1=CCCN(C)C1 [Compound 22E, 3-(4-Propylsulfanyl-1H-pyrazol-3-yl)-1,2,5,6-tetrahydro-1-methylpyridine]	316	100	> 10000	398		111													
CCSc1c[nH]nc1C1=CCCN(C)C1 [Compound 22D, 3-(4-Ethylsulfanyl-1H-pyrazol-3-yl)-1,2,5,6-tetrahydro-1-methylpyridine]	398	316	> 10000	1580		95 to 97													
CCCCSc1c[nH]nc1C1CN2CCC1CC2 (stereo not drawn) [Compound 49A, 3-(4-Butylsulfanyl-1H-pyrazol-3-yl)-1-azabicyclo[2.2.2]octane]	15.8			126		162 to 164	25.1	39.8	10										
CCCCCCSc1c[nH]nc1C1CN2CCC1CC2 (stereo not drawn) [Compound 49F, 3-(4-Hexylsulfanyl-1H-pyrazol-3-yl)-1-azabicyclo[2.2.2]octane]	50.1			251		130	12.6	12.6	794	398	> 1000	> 1000	100	> 1000	> 1000				
CCCCCSc1c[nH]nc1C1=CCCN(C)C1 [Compound 22G, 3-(4-Pentylsulfanyl-1H-pyrazol-3-yl)-1,2,5,6-tetrahydro-1-methylpyridine]	50.1	200	316	200	39.8	100 to 101										50			
CC(C)CCSc1c[nH]nc1C1=CCCN(C)C1 [Compound 22S, 3-[4-(3-methyl-butylsulfanyl)-1H-pyrazol-3-yl]-1,2,5,6-tetrahydro-1-methylpyridine]	50.1	158	> 10000	126	398							> 1000		100	> 1000		2000	> 1000	50.1
CSc1c[nH]nc1C1CN2CCC1CC2 (stereo not drawn) [Compound 49C, 3-(4-Methylsulfanyl-1H-pyrazol-3-yl)-1-azabicyclo[2.2.2]octane]	126			1000		145 to 147	126	501	79.4										
